From US20090233979A1, “Indole Derivatives and Their Use as Thyroid Receptor Ligands” (KARO BIO AB, priority 2006, published 2009)

Key:
human ThRβ1 = target: T1, human ThRβ1 (Homo sapiens, UniProt P10828); test: Reporter cell line (TRAF) assay, CHO/hThRβ1, alkaline phosphatase reporter; type: cell-based; conditions: CHO/hThRβ1 reporter cells, 48 hours incubation; read-out: β % agonism
T1 construct: The cDNAs encoding the full length human ThRα1 and ThRβ1; expressed in transfected cells
T1 sequence (P10828 1-461): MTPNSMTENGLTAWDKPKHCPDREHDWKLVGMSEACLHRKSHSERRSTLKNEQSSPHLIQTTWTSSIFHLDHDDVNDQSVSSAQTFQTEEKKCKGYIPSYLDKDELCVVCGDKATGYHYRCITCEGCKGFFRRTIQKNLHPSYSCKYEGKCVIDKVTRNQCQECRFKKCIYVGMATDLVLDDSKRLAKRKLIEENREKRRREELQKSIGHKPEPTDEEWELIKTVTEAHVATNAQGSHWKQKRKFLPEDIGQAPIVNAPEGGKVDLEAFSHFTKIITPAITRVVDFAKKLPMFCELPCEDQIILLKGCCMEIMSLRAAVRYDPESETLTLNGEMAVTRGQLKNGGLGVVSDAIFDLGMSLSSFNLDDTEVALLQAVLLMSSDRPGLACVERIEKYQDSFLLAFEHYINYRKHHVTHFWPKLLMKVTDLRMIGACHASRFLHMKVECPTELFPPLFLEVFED
Source text: Vector Constructs, Generation of Reporter Cell Lines (TRAF), and Assay Procedure.
The cDNAs encoding the full length human ThRα1 and ThRβ1 were cloned in the mammalian expression vector pMT-hGH. The pDR4-ALP reporter vector contains one copy of the direct repeat sequence AGGTCA nnnnAGGTCA, fused upstream of the core promoter sequences of the mouse mammary tumor virus long terminal repeat (MMTV), replacing the glucocorticoid response elements. The DR4-MMTV promoter fragment was then cloned in the 5′ end of the cDNA encoding human placental alkaline phosphatase (ALP), followed in the 3′-end by the polyA-signal sequence of the human growth hormone gene. Chinese hamster ovary (CHO) K1 cells (ATCC No. CCL 61) were transfected in two steps, first with the receptor expression vectors pMT-hThRα1 and pMT-ThRβ1, respectively, and the drug resistance vector pSV2-Neo, and in the second step, with the reporter vector pDR4-ALP and the drug resistance vector pKSV-Hyg. Individual drug resistant clones were isolated and selected based on T3 inducibility. One stable reporter cell clone each of CHO/hThRα1 and CHO/hThRβ1 were chosen for further study in response to various thyroid hormone agonists.
CHO/hThRα1 and CHO/hThRβ1 were seeded in growth medium (Coon's/F12, 10% L-3,5,3′-triiodothyronine and L-thyroxine depleted FCS, 2 mM L-glutamine) in 96-well plates at 20×10^3 cells per well. After 24 hour incubation at 37° C. in humidified chambers, at 5% CO2, conditioned medium was replaced by induction medium (OptiMEM, 2 mM L-glutamine, […] gentamycin) and cells were exposed to the test compounds at serial dilutions, at final DMSO concentration of 0.5%, or to serial dilution of T3 (positive control), to assess agonist activity of test compounds.
In order to examine antagonistic effect of test compounds, CHO/hThRα1 and […] were exposed to serial dilution of the compounds in the presence of 1 nM T3 (CHO/hThRα1) or 3 nM T3 (CHO/hThRβ1).
After 48 hours incubation at 37° C. in humidified chambers at 5% CO2 the level of alkaline phosphatase expressed and secreted into the cell culture medium was analyzed by chemiluminescence on MicroBeta Trilux.

hTRβ = target: T2, hTRβ (Homo sapiens, UniProt P10828); test: TR competition binding assay with filter separation; conditions: for IC50: competition with tracer 125I-T3, full length hTRβ, read-out: TR-β IC50; for binding to the TR-β receptor and/or agonistic activity compared to compounds lacking a substituent in the 2-position on the indole ring: versus Comparative Examples 1, 3, 4
T2 sequence (P10828 1-461): T1 sequence (P10828 1-461)
Procedure: TR Competition Binding Assay with Filter Separation
Compounds are tested for their ability to compete with the tracer ^125I-T3 for binding to full length hTRα and hTRβ. Receptor extracts and tracer are diluted in assay buffer (17 mM K2HPO4, 3 mM KH2PO4, 400 mM KCl, 1 mM MgCl2, 0.5 mM EDTA and 8.7% glycerol). ^125I-T3 is diluted to a final concentration of 0.2 nM and receptor is diluted to reach a final count in Trilux Microbeta of approximately 10000 ccpm. […] To 96 well microtiter plates are 100 μl tracer, 4 μl test compound dilution series and 100 μl receptor dilution added. The assay plates are incubated at +4° C. over night (app. 16 hrs incubation). Receptor bound and free tracer are separated over a glass fiber filter ([…] B, PerkinElmer)) on a Tomtec Cellharvester with 18 mM K2HPO4, 2 mM KH2PO4, 0.5 mM EDTA wash buffer. The filters are dried at 60° C. for 1 hour and then merged with a scintillant wax (MELTILEX, PerkinElmer) on a Wallac Microsealer before measuring in a Trilux Microbeta. IC50s, the concentration test compound needed to decrease tracer binding by 50 percent, are generated via analysis of data in XLfit version 2.0 or later with a four parameter logistic model.

| SMILES | Emax (human ThRβ1) [%] | IC50 (hTRβ) [nM] | binding to the TR-β receptor and/or agonistic activity compared to compounds lacking a substituent in the 2-position on the indole ring (hTRβ) |
| --- | --- | --- | --- |
| COc1ccc(-c2[nH]c3ccc(Oc4c(Cl)cc(CCC(=O)O)cc4Cl)cc3c2C(C)C)cc1 [Comparative Example 2, 3-{3,5-Dichloro-4-[3-isopropyl-2-(4-methoxy-phenyl)-1H-indol-5-yloxy]-phenyl}-propionic acid, reference compound] | 80.2 | 51.5 | – |
| COc1ccc(-c2[nH]c3ccc(Oc4c(Br)cc(CCC(=O)O)cc4Br)cc3c2C)cc1 [Example 3, 3-(3,5-dibromo-4-{[2-(4-methoxyphenyl)-3-methyl-1H-indol-5-yl]oxy}phenyl)propanoic acid] | 97.5 | 7.16 | improved binding to the TR-β receptor and/or improved agonistic activity |
| CCc1c(-c2ccc3c(c2)OCO3)[nH]c2ccc(Oc3c(Cl)cc(CCC(=O)O)cc3Cl)cc12 [Example 8, 3-(4-{[2-(1,3-benzodioxol-5-yl)-3-ethyl-1H-indol-5-yl]oxy}-3,5-dichlorophenyl)propanoic acid] | 76.9 | 2.5 | improved binding to the TR-β receptor and/or improved agonistic activity |
| CCc1c(-c2ccc3c(c2)OCO3)[nH]c2ccc(Oc3c(Br)cc(CCC(=O)O)cc3Br)cc12 [Example 9, 3-(4-{[2-(1,3-benzodioxol-5-yl)-3-ethyl-1H-indol-5-yl]oxy}-3,5-dibromophenyl)propanoic acid] | 70.3 | 0.33 | improved binding to the TR-β receptor and/or improved agonistic activity |
| CCc1c(-c2ccc(OC)cc2)[nH]c2ccc(Oc3c(Br)cc(CCC(=O)O)cc3Br)cc12 [Example 10, 3-(3,5-dibromo-4-{[2-(4-methoxyphenyl)-3-ethyl-1H-indol-5-yl]oxy}phenyl)propanoic acid] | 79.7 | 2.77 | improved binding to the TR-β receptor and/or improved agonistic activity |
| CCCc1c(-c2ccc(OC)cc2)[nH]c2ccc(Oc3c(Br)cc(CCC(=O)O)cc3Br)cc12 [Example 13, 3-(3,5-dibromo-4-{[2-(4-methoxyphenyl)-3-propyl-1H-indol-5-yl]oxy}phenyl)propanoic acid] | 70.7 | 8.88 | improved binding to the TR-β receptor and/or improved agonistic activity |
| CCOC(=O)CNc1cc(C)c(Oc2ccc3[nH]cc(C(C)C)c3c2)c(C)c1 [compound 3, reference compound] | 69.7 | 326 | – |
| Cc1cc(NCC(=O)O)cc(C)c1Oc1ccc2[nH]cc(C(C)C)c2c1 [compound 4, reference compound] | 39.7 | 43.1 | – |
